Experimental data as given in paper PMC5216056 (Nature Communications, 2017).
“Also recorded” adds a separate entry of the source.

Tests used:
NK1 (h) = target: T1, NK1 (h) (Homo sapiens, UniProt P25103); assay: CEREP panel; assay type: binding; conditions: for % inhibition NK1 (h): 10 µM
T1 construct: CEREP (contract assay)

P2X = assay: CEREP panel; assay type: binding; conditions: 10 µM
mCB2R [1] = target: T2, mCB2R (Mus musculus, UniProt P47936); assay: Operational analysis of biased signalling; conditions: for ΔLogR GTPγS / ΔLogR cAMP / ΔLogR β-AR: reference CP55940; for RE GTPγS / RE cAMP / RE β-AR: relative effectiveness
T2 sequence (P47936 whole entry): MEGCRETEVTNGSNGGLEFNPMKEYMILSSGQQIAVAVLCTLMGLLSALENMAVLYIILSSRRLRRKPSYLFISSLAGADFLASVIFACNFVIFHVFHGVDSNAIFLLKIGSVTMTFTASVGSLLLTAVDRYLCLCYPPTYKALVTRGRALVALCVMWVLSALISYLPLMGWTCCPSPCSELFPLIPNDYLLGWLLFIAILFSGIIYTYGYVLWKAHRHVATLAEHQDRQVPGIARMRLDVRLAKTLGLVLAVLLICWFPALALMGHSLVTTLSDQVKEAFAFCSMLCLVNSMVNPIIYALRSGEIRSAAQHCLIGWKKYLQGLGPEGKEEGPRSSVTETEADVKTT

NK2 (h) = target: T3, NK2 (h) (Homo sapiens, UniProt P21452); assay: CEREP panel; assay type: binding; conditions: for % inhibition NK2 (h): 10 µM
T3 construct: CEREP (contract assay)
T3 sequence (P21452 1-398): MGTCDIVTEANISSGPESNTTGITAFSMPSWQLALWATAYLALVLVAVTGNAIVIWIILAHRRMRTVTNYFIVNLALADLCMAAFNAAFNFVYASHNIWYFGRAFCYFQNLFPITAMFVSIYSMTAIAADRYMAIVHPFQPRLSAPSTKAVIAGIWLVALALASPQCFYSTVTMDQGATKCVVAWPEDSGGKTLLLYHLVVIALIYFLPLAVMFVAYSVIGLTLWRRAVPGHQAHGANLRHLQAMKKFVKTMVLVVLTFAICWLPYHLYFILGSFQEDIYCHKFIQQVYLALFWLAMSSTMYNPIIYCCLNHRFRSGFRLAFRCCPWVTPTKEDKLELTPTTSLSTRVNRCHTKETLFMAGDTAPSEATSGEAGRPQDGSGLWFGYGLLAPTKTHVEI

NOP (ORL1) (h) = target: T4, NOP (ORL1) (h) (Homo sapiens, UniProt P41146); assay: CEREP panel; assay type: binding; conditions: for % inhibition NOP (ORL1) (h): 10 µM
T4 construct: CEREP (contract assay)
T4 sequence (P41146 whole entry): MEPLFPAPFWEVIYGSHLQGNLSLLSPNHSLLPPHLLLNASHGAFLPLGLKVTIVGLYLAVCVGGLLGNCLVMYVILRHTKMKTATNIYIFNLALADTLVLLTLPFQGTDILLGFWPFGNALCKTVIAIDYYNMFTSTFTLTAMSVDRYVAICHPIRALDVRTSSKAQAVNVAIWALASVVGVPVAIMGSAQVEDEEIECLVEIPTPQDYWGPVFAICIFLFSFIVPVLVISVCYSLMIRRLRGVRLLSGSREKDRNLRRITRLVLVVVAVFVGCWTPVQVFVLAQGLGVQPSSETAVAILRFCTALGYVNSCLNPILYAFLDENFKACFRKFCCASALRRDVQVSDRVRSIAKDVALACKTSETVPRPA

AT2 (h) = target: T5, AT2 (h) (Homo sapiens, UniProt P50052); assay: CEREP panel; assay type: binding; conditions: for % inhibition AT2 (h): 10 µM
T5 construct: CEREP
T5 sequence (P50052 1-363): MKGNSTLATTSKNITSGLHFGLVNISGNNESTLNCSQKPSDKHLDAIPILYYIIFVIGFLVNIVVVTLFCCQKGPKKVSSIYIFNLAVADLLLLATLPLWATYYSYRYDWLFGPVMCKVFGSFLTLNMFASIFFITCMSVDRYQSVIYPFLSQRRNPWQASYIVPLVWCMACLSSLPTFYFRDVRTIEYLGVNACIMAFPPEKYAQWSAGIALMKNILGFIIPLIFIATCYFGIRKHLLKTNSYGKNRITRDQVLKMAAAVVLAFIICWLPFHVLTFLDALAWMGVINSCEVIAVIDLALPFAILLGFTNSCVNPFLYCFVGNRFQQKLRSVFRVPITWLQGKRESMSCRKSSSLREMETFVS

C57BL6/J mice [2] = assay: Triad assay: catalepsy; assay type: in vivo, mouse; conditions: for catalepsy, cannabimimetic effect: 1-100 mg kg^−1 i.p., cumulative, mice
A2A (h) = target: T6, A2A (h) (Homo sapiens, UniProt P29274); assay: CEREP panel; assay type: binding; conditions: for % inhibition A2A (h): 10 µM
T6 construct: CEREP
T6 sequence (P29274 whole entry): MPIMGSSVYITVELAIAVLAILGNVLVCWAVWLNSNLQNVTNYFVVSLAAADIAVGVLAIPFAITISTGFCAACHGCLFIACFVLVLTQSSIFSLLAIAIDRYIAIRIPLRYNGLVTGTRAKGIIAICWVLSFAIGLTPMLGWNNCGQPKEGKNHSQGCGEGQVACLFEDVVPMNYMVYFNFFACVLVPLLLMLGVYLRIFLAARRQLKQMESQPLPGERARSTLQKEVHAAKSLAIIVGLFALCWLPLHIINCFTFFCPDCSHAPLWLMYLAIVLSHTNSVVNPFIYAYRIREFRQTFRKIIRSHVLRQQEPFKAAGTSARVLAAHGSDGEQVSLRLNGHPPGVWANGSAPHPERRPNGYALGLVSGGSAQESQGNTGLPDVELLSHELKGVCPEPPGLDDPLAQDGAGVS

CB1 (h) = target: T7, CB1 (h) (Homo sapiens, UniProt P21554); assay: biochemical; assay type: binding; conditions: for % inhibition CB1 (h): 10 µM
T7 construct: CEREP (contract assay)
T7 sequence (P21554 whole entry): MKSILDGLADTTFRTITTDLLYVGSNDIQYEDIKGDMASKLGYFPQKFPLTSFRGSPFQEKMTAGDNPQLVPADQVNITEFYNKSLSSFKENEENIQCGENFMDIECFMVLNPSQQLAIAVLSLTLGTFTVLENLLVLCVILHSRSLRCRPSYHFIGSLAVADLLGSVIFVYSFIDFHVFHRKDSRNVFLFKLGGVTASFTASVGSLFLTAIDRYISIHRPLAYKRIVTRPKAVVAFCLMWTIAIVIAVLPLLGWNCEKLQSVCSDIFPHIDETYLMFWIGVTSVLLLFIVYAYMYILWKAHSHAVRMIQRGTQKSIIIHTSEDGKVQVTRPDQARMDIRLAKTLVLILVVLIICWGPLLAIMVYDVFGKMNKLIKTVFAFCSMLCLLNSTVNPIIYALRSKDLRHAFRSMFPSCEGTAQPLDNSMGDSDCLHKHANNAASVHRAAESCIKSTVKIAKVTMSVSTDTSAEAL

C57BL6/J mice [3] = assay: Triad assay: antinociception; assay type: in vivo, mouse; conditions: for antinociception, cannabimimetic effect: 1-100 mg kg^−1 i.p., cumulative, mice
B2 (h) = target: T8, B2 (h) (Homo sapiens, UniProt P30411); assay: CEREP panel; assay type: binding; conditions: for % inhibition B2 (h): 10 µM
T8 construct: CEREP
T8 sequence (P30411 1-391): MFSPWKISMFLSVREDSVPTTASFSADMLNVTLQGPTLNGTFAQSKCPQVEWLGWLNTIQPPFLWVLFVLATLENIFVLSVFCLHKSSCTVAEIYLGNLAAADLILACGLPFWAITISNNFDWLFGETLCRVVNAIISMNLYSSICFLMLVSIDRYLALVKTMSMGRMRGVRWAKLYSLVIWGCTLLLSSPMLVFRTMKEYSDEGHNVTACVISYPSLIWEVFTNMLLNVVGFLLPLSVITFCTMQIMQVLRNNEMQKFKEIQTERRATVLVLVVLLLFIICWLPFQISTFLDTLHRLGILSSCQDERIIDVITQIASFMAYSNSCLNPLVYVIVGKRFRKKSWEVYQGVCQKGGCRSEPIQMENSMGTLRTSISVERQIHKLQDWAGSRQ

PDGF = assay: CEREP panel; assay type: binding; conditions: 10 µM
BB = assay: CEREP panel; assay type: binding; conditions: 10 µM
mCB2R [4] = target: T2, mCB2R; assay: PathHunter β-arrestin recruitment assay; assay type: cell-based; conditions: for Emax ± SEM β-AR recruitment mCB2R: normalized to 10 µM CP55940
MT1 (ML1A) (h) = target: T9, MT1 (ML1A) (h) (Homo sapiens, UniProt P48039); assay: CEREP panel; assay type: binding; conditions: for % inhibition MT1 (ML1A) (h): 10 µM
T9 construct: CEREP (contract assay)
T9 sequence (P48039 whole entry): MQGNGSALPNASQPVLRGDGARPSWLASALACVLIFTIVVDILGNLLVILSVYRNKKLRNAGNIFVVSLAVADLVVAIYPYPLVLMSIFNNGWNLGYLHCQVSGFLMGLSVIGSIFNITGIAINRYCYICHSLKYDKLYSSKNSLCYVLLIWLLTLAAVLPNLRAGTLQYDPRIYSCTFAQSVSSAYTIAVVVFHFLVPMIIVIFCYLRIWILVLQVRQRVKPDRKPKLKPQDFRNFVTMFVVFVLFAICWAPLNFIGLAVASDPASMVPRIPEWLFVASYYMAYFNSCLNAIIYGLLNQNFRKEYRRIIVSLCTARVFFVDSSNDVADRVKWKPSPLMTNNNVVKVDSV

mCB2R [5] = target: T2, mCB2R; assay: [35S]GTPγS assay; assay type: biochemical; design: from tissue; host or cells: spleen of male C57BL/6J mice; conditions: for Emax ± SEM GTPγS mCB2R: normalized to 10 µM CP55940
C57BL6/J mice [6] = assay: Triad assay: hypothermia; assay type: in vivo, mouse; conditions: for hypothermia, cannabimimetic effect: 1-100 mg kg^−1 i.p., cumulative, mice
beta 2 (h) = target: T10, beta 2 (h) (Homo sapiens, UniProt P07550); assay: CEREP panel; assay type: binding; conditions: for % inhibition beta 2 (h): 10 µM
T10 construct: CEREP
T10 sequence (P07550 whole entry): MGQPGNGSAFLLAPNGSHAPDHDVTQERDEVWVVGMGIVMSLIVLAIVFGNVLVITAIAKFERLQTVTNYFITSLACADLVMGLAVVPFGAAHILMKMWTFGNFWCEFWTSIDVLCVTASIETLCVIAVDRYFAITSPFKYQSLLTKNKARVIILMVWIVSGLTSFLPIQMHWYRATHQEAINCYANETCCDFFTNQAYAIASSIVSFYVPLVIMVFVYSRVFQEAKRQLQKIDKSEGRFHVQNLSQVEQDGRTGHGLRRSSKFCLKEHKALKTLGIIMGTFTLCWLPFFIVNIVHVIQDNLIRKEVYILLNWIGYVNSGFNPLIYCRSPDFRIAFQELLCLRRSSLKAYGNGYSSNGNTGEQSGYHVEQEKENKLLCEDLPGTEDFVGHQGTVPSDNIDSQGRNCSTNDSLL

human P-gp = human P-gp (Homo sapiens, UniProt P08183); conditions: efflux ratio
Sequence of human P-gp (P08183 whole entry): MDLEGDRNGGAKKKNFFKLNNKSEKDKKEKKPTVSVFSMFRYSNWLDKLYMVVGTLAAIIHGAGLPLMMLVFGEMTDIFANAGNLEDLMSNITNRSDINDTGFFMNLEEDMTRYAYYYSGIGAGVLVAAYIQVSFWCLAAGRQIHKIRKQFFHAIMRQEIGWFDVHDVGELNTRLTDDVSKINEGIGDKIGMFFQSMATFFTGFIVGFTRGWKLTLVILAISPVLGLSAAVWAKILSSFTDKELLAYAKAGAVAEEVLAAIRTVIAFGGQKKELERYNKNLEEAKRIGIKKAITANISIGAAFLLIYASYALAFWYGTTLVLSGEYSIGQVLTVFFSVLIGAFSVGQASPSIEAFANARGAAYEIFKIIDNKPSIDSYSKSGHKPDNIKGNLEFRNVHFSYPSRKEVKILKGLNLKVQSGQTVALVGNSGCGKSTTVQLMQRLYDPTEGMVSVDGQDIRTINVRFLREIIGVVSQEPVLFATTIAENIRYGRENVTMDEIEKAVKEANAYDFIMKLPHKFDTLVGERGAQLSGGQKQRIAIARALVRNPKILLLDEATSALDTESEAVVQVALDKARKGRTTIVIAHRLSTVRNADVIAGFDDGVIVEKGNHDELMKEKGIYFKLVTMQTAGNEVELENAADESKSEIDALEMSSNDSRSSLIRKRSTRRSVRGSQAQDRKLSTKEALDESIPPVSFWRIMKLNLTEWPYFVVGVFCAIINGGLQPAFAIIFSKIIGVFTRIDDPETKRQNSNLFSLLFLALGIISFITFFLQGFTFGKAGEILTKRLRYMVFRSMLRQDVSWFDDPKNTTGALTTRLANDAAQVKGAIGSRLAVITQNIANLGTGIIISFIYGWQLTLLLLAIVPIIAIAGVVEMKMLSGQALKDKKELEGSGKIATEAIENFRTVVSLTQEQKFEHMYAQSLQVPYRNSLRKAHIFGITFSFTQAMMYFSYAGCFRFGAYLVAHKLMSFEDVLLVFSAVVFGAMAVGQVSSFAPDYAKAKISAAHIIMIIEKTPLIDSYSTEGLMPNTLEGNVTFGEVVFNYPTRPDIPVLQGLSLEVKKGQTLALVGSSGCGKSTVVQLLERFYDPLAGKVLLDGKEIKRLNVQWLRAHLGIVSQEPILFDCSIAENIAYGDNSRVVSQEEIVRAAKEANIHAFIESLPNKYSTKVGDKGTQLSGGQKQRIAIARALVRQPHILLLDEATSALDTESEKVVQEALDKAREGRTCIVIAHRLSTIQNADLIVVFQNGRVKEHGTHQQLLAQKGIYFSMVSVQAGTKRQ

[7] = system: sigma (non-selective) (h); assay type: binding, human; conditions: 10 µM
[8] = pretreatment (SR141716A 3 mg kg^−1, HU910 30 mg kg^−1) before HU210 1.7 mg kg^−1

T1 sequence (P25103 whole entry): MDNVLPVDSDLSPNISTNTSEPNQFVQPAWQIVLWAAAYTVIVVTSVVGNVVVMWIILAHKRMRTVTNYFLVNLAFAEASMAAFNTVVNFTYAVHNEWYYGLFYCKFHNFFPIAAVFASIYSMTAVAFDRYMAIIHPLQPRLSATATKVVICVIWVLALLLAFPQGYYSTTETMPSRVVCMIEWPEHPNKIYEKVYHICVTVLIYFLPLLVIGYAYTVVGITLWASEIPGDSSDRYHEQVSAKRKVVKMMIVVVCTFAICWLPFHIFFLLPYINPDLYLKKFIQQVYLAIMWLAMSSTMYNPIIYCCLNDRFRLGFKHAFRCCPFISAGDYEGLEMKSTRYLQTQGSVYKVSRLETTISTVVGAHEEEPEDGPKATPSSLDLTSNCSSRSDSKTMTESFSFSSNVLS

SMILES | % inhibition P2X (P2X) | GTPγS-cAMP bias factor (BF) (mCB2R [1]) | GTPγS-cAMP ΔΔlogR (mCB2R [1]) | LogR GTPγS (mCB2R [1]) | LogR cAMP (mCB2R [1]) | LogR β-AR (mCB2R [1]) | β-AR-GTPγS bias factor (BF) (mCB2R [1]) | β-AR-GTPγS ΔΔlogR (mCB2R [1]) | β-AR-cAMP bias factor (BF) (mCB2R [1]) | β-AR-cAMP ΔΔlogR (mCB2R [1]) | ΔLogR GTPγS (mCB2R [1]) | ΔLogR cAMP (mCB2R [1]) | ΔLogR β-AR (mCB2R [1]) | RE GTPγS (mCB2R [1]) | RE cAMP (mCB2R [1]) | RE β-AR (mCB2R [1]) | catalepsy, cannabimimetic effect (C57BL6/J mice [2]) | antinociception, cannabimimetic effect (C57BL6/J mice [3]) | % inhibition PDGF (PDGF) | % inhibition BB (BB) | also measured
CCCCCCC(C)(C)c1cc(OC)c([C@@H]2C=C(CO)[C@@H]3C[C@H]2C3(C)C)c(OC)c1 [HU308] | 2% | 25.8 | 1.41 ± 0.27 | 6.77 ± 0.05 | 8.07 ± 0.22 | 6.22 ± 0.10 | 0.19 | -0.72 ± 0.13 | 4.9 | 0.69 ± 0.28 | -1.04 ± 0.07 | -2.46 ± 0.26 | -1.77 ± 0.12 | 0.09 | 0.004 | 0.02 | did not produce detectable; also recorded: lacked appreciable pharmacological effects | did not produce detectable; also recorded: lacked appreciable pharmacological effects | -28% | 3% | inhibition at 10 µM (NK1 (h); read-out: % inhibition NK1 (h)): 29%; inhibition at 10 µM (NK2 (h); read-out: % inhibition NK2 (h)): 68%; inhibition at 10 µM (NOP (ORL1) (h); read-out: % inhibition NOP (ORL1) (h)): -5%; inhibition at 10 µM (AT2 (h); read-out: % inhibition AT2 (h)): 42%; inhibition at 10 µM (A2A (h); read-out: % inhibition A2A (h)): 25%; inhibition at 10 µM (CB1 (h); read-out: % inhibition CB1 (h)): 18%; inhibition at 10 µM (B2 (h); read-out: % inhibition B2 (h)): -21%; EC50 (mCB2R [4]): 0.339 µM; Emax (mCB2R [4]; read-out: Emax ± SEM β-AR recruitment mCB2R): 69 ± 3%; inhibition at 10 µM (MT1 (ML1A) (h); read-out: % inhibition MT1 (ML1A) (h)): -5%; EC50 (mCB2R [5]): 0.148 µM; Emax (mCB2R [5]; read-out: Emax ± SEM GTPγS mCB2R): 96 ± 3%; hypothermia, cannabimimetic effect (C57BL6/J mice [6]): did not produce detectable; also recorded: lacked appreciable pharmacological effects; inhibition at 10 µM (beta 2 (h); read-out: % inhibition beta 2 (h)): -30%
CCCCCCC(C)(C)c1cc(OC)c(C2=C[C@H]3CC[C@]2(CO)C3(C)C)c(OC)c1 [HU910] | -10% | 23.6 | 1.37 ± 0.24 | 7.15 ± 0.07 | 8.48 ± 0.18 | 6.57 ± 0.11 | 0.18 | -0.75 ± 0.15 | 4.2 | 0.63 ± 0.26 | -0.67 ± 0.08 | -2.04 ± 0.23 | -1.41 ± 0.12 | 0.22 | 0.009 | 0.04 | did not produce detectable; also recorded: lacked appreciable pharmacological effects | did not produce detectable; also recorded: lacked appreciable pharmacological effects | 10% | 18% | % inhibition NK1 (h) (NK1 (h)): 42%; Plasma protein binding mouse: 4.1 %free; P-gp (ER) human (human P-gp): 2.2; % inhibition NK2 (h) (NK2 (h)): 31%; % inhibition NOP (ORL1) (h) (NOP (ORL1) (h)): 4%; % inhibition AT2 (h) (AT2 (h)): 13%; antagonism of HU210-induced catalepsy (C57BL6/J mice [2]; [8]): did not significantly reduce; % inhibition A2A (h) (A2A (h)): 50%; % inhibition CB1 (h) (CB1 (h)): 71%; antagonism of HU210-induced antinociception (C57BL6/J mice [3]; [8]): did not significantly reduce; % inhibition B2 (h) (B2 (h)): -39%; pEC50 ± SEM β-AR recruitment mCB2R (mCB2R [4]): 6.78 ± 0.16; Emax ± SEM β-AR recruitment mCB2R (mCB2R [4]): 66 ± 1%; % inhibition MT1 (ML1A) (h) (MT1 (ML1A) (h)): 52%; pEC50 ± SEM GTPγS mCB2R (mCB2R [5]): 7.27 ± 0.08; Emax ± SEM GTPγS mCB2R (mCB2R [5]): 78 ± 4%; hypothermia, cannabimimetic effect (C57BL6/J mice [6]): did not produce detectable; also recorded: lacked appreciable pharmacological effects; antagonism of HU210-induced hypothermia (C57BL6/J mice [6]; [8]): did not significantly reduce; % inhibition beta 2 (h) (beta 2 (h)): -5%
CCCC(C)(C)c1ccc2c(c1)OC(C)(C)[C@@H]1CC=C(C)C[C@@H]21 [JWH133] | -5% | 50.9 | 1.71 ± 0.18 | 7.07 ± 0.05 | 8.07 ± 0.09 | 6.57 ± 0.12 | 0.21 | -0.67 ± 0.15 | 10.9 | 1.04 ± 0.21 | -0.75 ± 0.07 | -2.45 ± 0.17 | -1.42 ± 0.13 | 0.18 | 0.004 | 0.04 | did not produce detectable; also recorded: lacked appreciable pharmacological effects | did not produce detectable; also recorded: lacked appreciable pharmacological effects | -12% | 0% | % inhibition NK1 (h) (NK1 (h)): 13%; % inhibition NK2 (h) (NK2 (h)): 36%; % inhibition NOP (ORL1) (h) (NOP (ORL1) (h)): -5%; % inhibition AT2 (h) (AT2 (h)): 0%; % inhibition A2A (h) (A2A (h)): 4%; % inhibition CB1 (h) (CB1 (h)): 6; % inhibition B2 (h) (B2 (h)): -2%; % inhibition sigma (non-selective) (h) [7]: 2%; pEC50 ± SEM β-AR recruitment mCB2R (mCB2R [4]): 6.80 ± 0.17; Emax ± SEM β-AR recruitment mCB2R (mCB2R [4]): 63 ± 7%; % inhibition MT1 (ML1A) (h) (MT1 (ML1A) (h)): -4%; pEC50 ± SEM GTPγS mCB2R (mCB2R [5]): 7.03 ± 0.14; Emax ± SEM GTPγS mCB2R (mCB2R [5]): 103 ± 7%; hypothermia, cannabimimetic effect (C57BL6/J mice [6]): did not produce detectable; also recorded: lacked appreciable pharmacological effects; % inhibition beta 2 (h) (beta 2 (h)): -15%
